In publication PMC11005723, “Development of Complementary Photo‐arginine/lysine to Promote Discovery of Arg/Lys hPTMs Interactomes” (Advanced Science, 2024):

System: HEK293T nuclear lysates
Assay: SILAC‐based pull‐down proteomics H4K5me2/H4K5 (probes 7/5)
Format: binding, human
Settings: for E6 log2 (H4K5me2/H4K5): run E6; for F6 log2 (H4K5me2/H4K5): run F6

Substance: probe 7: H4K5me2 peptide probe with photo‐arginine R(dz) and K(biotin) (SGRGKGGKGLGKGGK; photo-arginine R(dz) at 3; dimethyl-lysine at 5; K(biotin) at 15)
- proteins recruited (SILAC proteomics H4K5me2/H4K5) (365 nm UV 30 min, streptavidin enrichment, n = 2): could recruit L3MBTL2
- E6 log2 (H4K5me2/H4K5) (protein A0A0U1RR22 PACSIN2): 0.1208
- F6 log2 (H4K5me2/H4K5) (protein A0A0U1RR22 PACSIN2): -0.1109
- E6 log2 (H4K5me2/H4K5) (protein A0A2R8Y855 SMARCE1): 0.07695
- F6 log2 (H4K5me2/H4K5) (protein A0A2R8Y855 SMARCE1): 0.03141
- E6 log2 (H4K5me2/H4K5) (protein A0A087WY61 NUMA1): 0.1401
- F6 log2 (H4K5me2/H4K5) (protein A0A087WY61 NUMA1): 0.3015
- E6 log2 (H4K5me2/H4K5) (protein A6NLN1 PTBP1): 0.07938
- F6 log2 (H4K5me2/H4K5) (protein A6NLN1 PTBP1): -0.02591
- E6 log2 (H4K5me2/H4K5) (protein B4DY09 ILF2): 0.08111
- F6 log2 (H4K5me2/H4K5) (protein B4DY09 ILF2): 0.1752
- E6 log2 (H4K5me2/H4K5) (protein B5MCF9 PES1): 0.1415
- F6 log2 (H4K5me2/H4K5) (protein B5MCF9 PES1): 0.1164
- E6 log2 (H4K5me2/H4K5) (protein E7ETZ4 BZW2): 0.1449
- F6 log2 (H4K5me2/H4K5) (protein E7ETZ4 BZW2): -0.03577
- E6 log2 (H4K5me2/H4K5) (protein E9PKG1 PRMT1): 0.1534
- F6 log2 (H4K5me2/H4K5) (protein E9PKG1 PRMT1): 0.23
- E6 log2 (H4K5me2/H4K5) (protein H7C3T4 PRDX4): 0.1102
- F6 log2 (H4K5me2/H4K5) (protein H7C3T4 PRDX4): 0.1589
- E6 log2 (H4K5me2/H4K5) (protein J3QR09 RPL19): 0.1467
- F6 log2 (H4K5me2/H4K5) (protein J3QR09 RPL19): -0.9956
- E6 log2 (H4K5me2/H4K5) (protein M0R3F6 SUGP2): 0.09539
- F6 log2 (H4K5me2/H4K5) (protein M0R3F6 SUGP2): 0.1115
- E6 log2 (H4K5me2/H4K5) (protein O00567 NOP56): 0.1426
- F6 log2 (H4K5me2/H4K5) (protein O00567 NOP56): -0.1862
- E6 log2 (H4K5me2/H4K5) (protein O14654 IRS4): 0.1705
- F6 log2 (H4K5me2/H4K5) (protein O14654 IRS4): -0.09217
- E6 log2 (H4K5me2/H4K5) (protein O14980 XPO1): 0.1332
- F6 log2 (H4K5me2/H4K5) (protein O14980 XPO1): 0.2789
- E6 log2 (H4K5me2/H4K5) (protein O43663 PRC1): 0.1243
- F6 log2 (H4K5me2/H4K5) (protein O43663 PRC1): 0.05206
- E6 log2 (H4K5me2/H4K5) (protein O43670 ZNF207): 0.07954
- F6 log2 (H4K5me2/H4K5) (protein O43670 ZNF207): 0.2082
- E6 log2 (H4K5me2/H4K5) (protein O60216 RAD21): 0.09859
- F6 log2 (H4K5me2/H4K5) (protein O60216 RAD21): -0.00427
- E6 log2 (H4K5me2/H4K5) (protein O60264 SMARCA5): 0.1187
- F6 log2 (H4K5me2/H4K5) (protein O60264 SMARCA5): 0.0006909
- E6 log2 (H4K5me2/H4K5) (protein O75717 WDHD1): 0.1724
- F6 log2 (H4K5me2/H4K5) (protein O75717 WDHD1): 0.09518
- E6 log2 (H4K5me2/H4K5) (protein O95218 ZRANB2): 0.07138
- F6 log2 (H4K5me2/H4K5) (protein O95218 ZRANB2): 0.02934
- E6 log2 (H4K5me2/H4K5) (protein O95239 KIF4A): 0.09061
- F6 log2 (H4K5me2/H4K5) (protein O95239 KIF4A): 0.09527
- E6 log2 (H4K5me2/H4K5) (protein P04843 RPN1): 0.0606
- F6 log2 (H4K5me2/H4K5) (protein P04843 RPN1): -0.2414
- E6 log2 (H4K5me2/H4K5) (protein P08107 HSPA1A): 0.1665
- F6 log2 (H4K5me2/H4K5) (protein P08107 HSPA1A): 0.1744
- E6 log2 (H4K5me2/H4K5) (protein P11387 TOP1): 0.0619
- F6 log2 (H4K5me2/H4K5) (protein P11387 TOP1): 0.02763
- E6 log2 (H4K5me2/H4K5) (protein P12081 HARS): 0.08516
- F6 log2 (H4K5me2/H4K5) (protein P12081 HARS): -0.01799
- E6 log2 (H4K5me2/H4K5) (protein P13010 XRCC5): 0.1114
- F6 log2 (H4K5me2/H4K5) (protein P13010 XRCC5): 0.1089
- E6 log2 (H4K5me2/H4K5) (protein P17028 ZNF24): 0.05262
- F6 log2 (H4K5me2/H4K5) (protein P17028 ZNF24): 0.1336
- E6 log2 (H4K5me2/H4K5) (protein P22314 UBA1): 0.1022
- F6 log2 (H4K5me2/H4K5) (protein P22314 UBA1): 0.2143
- E6 log2 (H4K5me2/H4K5) (protein P26358 DNMT1): 0.1405
- F6 log2 (H4K5me2/H4K5) (protein P26358 DNMT1): 0.2161
- E6 log2 (H4K5me2/H4K5) (protein P26641 EEF1G): 0.08126
- F6 log2 (H4K5me2/H4K5) (protein P26641 EEF1G): 0.1297
- E6 log2 (H4K5me2/H4K5) (protein P29692 EEF1D): 0.1014
- F6 log2 (H4K5me2/H4K5) (protein P29692 EEF1D): -0.2527
- E6 log2 (H4K5me2/H4K5) (protein P31689 DNAJA1): 0.1011
- F6 log2 (H4K5me2/H4K5) (protein P31689 DNAJA1): 0.04124
- E6 log2 (H4K5me2/H4K5) (protein P46109 CRKL): 0.0665
- F6 log2 (H4K5me2/H4K5) (protein P46109 CRKL): -0.05223
- E6 log2 (H4K5me2/H4K5) (protein P49411 TUFM): 0.1754
- F6 log2 (H4K5me2/H4K5) (protein P49411 TUFM): 0.2878
- E6 log2 (H4K5me2/H4K5) (protein P49792 RANBP2): 0.07412
- F6 log2 (H4K5me2/H4K5) (protein P49792 RANBP2): 0.1736
- E6 log2 (H4K5me2/H4K5) (protein P49915 GMPS): 0.05379
- F6 log2 (H4K5me2/H4K5) (protein P49915 GMPS): 0.04262
- E6 log2 (H4K5me2/H4K5) (protein P51991 HNRNPA3): 0.1036
- F6 log2 (H4K5me2/H4K5) (protein P51991 HNRNPA3): 0.2517
- E6 log2 (H4K5me2/H4K5) (protein P52272 HNRNPM): 0.1368
- F6 log2 (H4K5me2/H4K5) (protein P52272 HNRNPM): 0.1164
- E6 log2 (H4K5me2/H4K5) (protein P52597 HNRNPF): 0.1056
- F6 log2 (H4K5me2/H4K5) (protein P52597 HNRNPF): 0.253
- E6 log2 (H4K5me2/H4K5) (protein P52948 NUP98): 0.08442
- F6 log2 (H4K5me2/H4K5) (protein P52948 NUP98): -0.03692
- E6 log2 (H4K5me2/H4K5) (protein P55072 VCP): 0.1596
- F6 log2 (H4K5me2/H4K5) (protein P55072 VCP): 0.3874
- E6 log2 (H4K5me2/H4K5) (protein P62258 YWHAE): 0.1303
- F6 log2 (H4K5me2/H4K5) (protein P62258 YWHAE): -0.03753
- E6 log2 (H4K5me2/H4K5) (protein P62979 RPS27A): 0.1537
- F6 log2 (H4K5me2/H4K5) (protein P62979 RPS27A): -0.5244
- E6 log2 (H4K5me2/H4K5) (protein P63167 DYNLL1): 0.05641
- F6 log2 (H4K5me2/H4K5) (protein P63167 DYNLL1): 0.2614
- E6 log2 (H4K5me2/H4K5) (protein P67870 CSNK2B): 0.1418
- F6 log2 (H4K5me2/H4K5) (protein P67870 CSNK2B): -0.3988
- E6 log2 (H4K5me2/H4K5) (protein P78347 GTF2I): 0.1733
- F6 log2 (H4K5me2/H4K5) (protein P78347 GTF2I): 0.08348
- E6 log2 (H4K5me2/H4K5) (protein P78371 CCT2): 0.07998
- F6 log2 (H4K5me2/H4K5) (protein P78371 CCT2): 0.282
- E6 log2 (H4K5me2/H4K5) (protein P84103 SRSF3): 0.08043
- F6 log2 (H4K5me2/H4K5) (protein P84103 SRSF3): -0.102
- E6 log2 (H4K5me2/H4K5) (protein P85037 FOXK1): 0.1575
- F6 log2 (H4K5me2/H4K5) (protein P85037 FOXK1): -0.07311
- E6 log2 (H4K5me2/H4K5) (protein Q5SY16 NOL9): 0.1325
